Publication PMC6545544 (ACS Omega, 2019)

Columns and labels:
HIV-1 protease with G48V [1] = settings: thermodynamic integration and MM-PBSA; cited from earlier work
PR with M46L = settings: cited from earlier work
PR with I54V = settings: cited from earlier work
[2] = system: PR bearing the single V82A mutation; settings: kinetic studies; cited from earlier work
PR^S17 [3] = settings: PR^S17, flap twisting by G48V implicated; cited from earlier work
[4] = system: PR with 22 mutations in addition to inactivating D25N mutation; settings: PR with 22 mutations in addition to D25N; cited from earlier work
PR with G48V = settings: cited from earlier work
PR^S17 [5] = settings: PR^S17, predicted from genotype–phenotype data; cited from earlier work
HIV-1 protease with G48V [6] = settings: flap mutation G48V; cited from earlier work
[7] = target: PR (wild-type HIV-1 protease); settings: read-out: Inhibition constant (Ki), determined previously; cited from earlier work
[8] = target: PR^S17 (HIV-1 protease variant with 17 mutations); assay: Kinetic inhibition of PR^S17; assay type: biochemical; settings: PR^S17 compared to PR
PR^V82A = settings: read-out: Inhibition constant (Ki), determined previously; cited from earlier work
[9] = target: HIV-1 protease variant PR^S17 (HIV-1); assay: enzyme inhibition kinetics

## CC(C)CN(C[C@@H](O)[C@H](Cc1ccccc1)NC(=O)O[C@H]1CCOC1)S(=O)(=O)c1ccc(N)cc1 [APV, amprenavir]
HIV-1 protease with G48V [1]
  effect of G48V on van der Waals interactions: strengthens van der Waals interactions

## CC(C)CN(C[C@@H](O)[C@H](Cc1ccccc1)NC(=O)O[C@H]1CO[C@H]2OCC[C@H]21)S(=O)(=O)c1ccc(N)cc1 [DRV, darunavir]
PR with M46L
  inhibition constant (Ki) relative to wild-type PR: worse inhibition constants
PR with I54V
  inhibition constant (Ki) relative to wild-type PR: worse inhibition constants
[2]
  affinity of PR with V82A for inhibitor: significantly worse affinity
PR^S17 [3]
  cross-resistance of PR^S17: cross-resistance
[4]
  resistance (fold): > 175 fold
PR with G48V
  inhibition constant (Ki) relative to wild-type PR: worse inhibition constants

## COC(=O)N[C@H](C(=O)N[C@@H](Cc1ccccc1)[C@@H](O)CN(Cc1ccc(-c2ccccn2)cc1)NC(=O)[C@@H](NC(=O)OC)C(C)(C)C)C(C)(C)C [atazanavir]
PR^S17 [5]
  predicted resistance: high-level resistance

## CC(C)(C)NC(=O)[C@@H]1CN(Cc2cccnc2)CCN1C[C@@H](O)C[C@@H](Cc1ccccc1)C(=O)N[C@H]1c2ccccc2C[C@H]1O [indinavir]
PR^S17 [5]
  predicted resistance: high-level resistance
[2]
  affinity of PR with V82A for inhibitor: significantly worse affinity

## Cc1cccc(C)c1OCC(=O)N[C@@H](Cc1ccccc1)[C@@H](O)C[C@H](Cc1ccccc1)NC(=O)[C@H](C(C)C)N1CCCNC1=O [lopinavir]
PR^S17 [5]
  predicted resistance: high-level resistance

## Cc1c(O)cccc1C(=O)N[C@@H](CSc1ccccc1)[C@H](O)CN1C[C@H]2CCCC[C@H]2C[C@H]1C(=O)NC(C)(C)C [nelfinavir]
PR^S17 [5]
  predicted resistance: high-level resistance
[2]
  affinity of PR with V82A for inhibitor: significantly worse affinity

## CC(C)c1nc(CN(C)C(=O)N[C@H](C(=O)N[C@@H](Cc2ccccc2)C[C@H](O)[C@H](Cc2ccccc2)NC(=O)OCc2cncs2)C(C)C)cs1 [ritonavir]
PR^S17 [5]
  predicted resistance: high-level resistance
[2]
  affinity of PR with V82A for inhibitor: significantly worse affinity

## CC(C)(C)NC(=O)[C@@H]1C[C@@H]2CCCC[C@@H]2CN1C[C@@H](O)[C@H](Cc1ccccc1)NC(=O)[C@H](CC(N)=O)NC(=O)c1ccc2ccccc2n1 [saquinavir]
PR with M46L
  inhibition constant (Ki) relative to wild-type PR: worse inhibition constants
PR^S17 [5]
  predicted resistance: high-level resistance
PR with I54V
  inhibition constant (Ki) relative to wild-type PR: worse inhibition constants
HIV-1 protease with G48V [6]
  resistance conferred by G48V: high level of resistance
PR with G48V
  inhibition constant (Ki) relative to wild-type PR: worse inhibition constants

## Ace-T-I-Nle-r-Nle-Q-R [p2-NC]
[7]
  Ki: 2170 nM
[8]
  Ki relative to the wild-type PR (fold better inhibition): 4.2
PR^V82A
  Ki: 530 nM

## R-V-L-r-F-E-A-Nle [CA-p2]
[7]
  Ki: 75 nM
PR^V82A
  Ki: 24 nM

## substrate analogue CA-p2 (R-V-L-r-F-E-A-Nle) (peptide)
[9]
  Ki: 22 nM

## substrate analogue p2-NC (Ace-T-I-Nle-r-Nle-Q-R) (peptide)
[9]
  Ki: 514 nM
